Measurements: patent US8946197B2, “Transglutaminase TG2 inhibitors, pharmaceutical compositions, and methods of use thereof” (CHDI Foundation, Inc., priority 2009, dated 2015)
Where “and” joins values, the source holds several entries; their conditions need not be identical. Equal values may be shown once.

Biological target: T1, human TG2 (Homo sapiens, UniProt P21980)
T1 sequence (P21980 1-687): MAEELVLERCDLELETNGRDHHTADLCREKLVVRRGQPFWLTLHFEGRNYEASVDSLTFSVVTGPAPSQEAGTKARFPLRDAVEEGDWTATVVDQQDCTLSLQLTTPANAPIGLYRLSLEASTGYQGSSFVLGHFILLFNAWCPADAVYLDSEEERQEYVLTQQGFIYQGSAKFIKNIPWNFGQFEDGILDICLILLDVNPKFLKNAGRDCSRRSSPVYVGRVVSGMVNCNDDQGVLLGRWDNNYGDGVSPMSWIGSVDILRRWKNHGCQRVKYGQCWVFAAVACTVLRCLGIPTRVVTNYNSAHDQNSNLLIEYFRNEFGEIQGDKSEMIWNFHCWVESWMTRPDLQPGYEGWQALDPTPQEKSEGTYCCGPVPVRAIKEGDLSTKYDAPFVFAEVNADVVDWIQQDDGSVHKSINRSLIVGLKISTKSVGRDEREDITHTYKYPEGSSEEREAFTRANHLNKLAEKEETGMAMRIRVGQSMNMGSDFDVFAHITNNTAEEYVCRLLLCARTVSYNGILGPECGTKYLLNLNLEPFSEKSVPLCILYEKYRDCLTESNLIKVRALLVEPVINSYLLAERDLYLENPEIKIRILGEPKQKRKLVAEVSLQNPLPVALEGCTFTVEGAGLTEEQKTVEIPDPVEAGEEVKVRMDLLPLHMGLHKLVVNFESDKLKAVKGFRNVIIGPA
Test: fluorescent screening assay for human TG2
Type: biochemical
Conditions: 20 nM TG2, 8 μM N,N-dimethylated Casein, 16 μM KxD, pH 7.4, 37° C
Experimental: (§1) The fluorescent screening assay for human TG2 was performed as described herein: Assay conditions were 20 nM TG2, 8 μM N,N-dimethylated Casein (NMC) and 16 μM K×D (used for all transglutaminase assays) in 25 mM Hepes, pH 7.4, 250 mM NaCl, 2 mM MgCl2, 0.5 mM CaCl2, 0.2 mM DTT, 0.05% Pluronic F-127 at 37° C. A time point was taken with a microplate reader (Safire or Ultra, Tecan; ex: 350 nm, em: 535 nm) every 3 minutes for up to 2 hours and the initial linear reaction progress was used to determine the reaction velocity as a measure for enzyme activity. Assay conditions were identical for human TG6 and similar for human TG1 and mouse TG2 apart from enzyme concentration (mTG2 at 5 nM; TG1 at 10 nM) and CaCl2 concentration (0.2 mM for mTG2; 0.05 mM for TG1). Factor XIIIa was activated using 0.1 μg/μl thrombin (Sigma) in 35 mM Tris pH 8.0 for 20 min at 30° C. and the transamidation reaction was performed with 20 nM Factor XIIIa in 50 mM Tris pH 8.0, 1.25 mM CaCl2, 0.05% Pluronic, 0.2 mM DTT. TG3 was activated with 0.02 μg/μl thrombin under the same conditions as Factor XIIIa and assay conditions were 10 nM TG3 in 50 mM Hepes, pH 8, 20 mM CaCl2, 0.2 mM DTT, 0.05% Pluronic F-127.
as §1, with “A” for “The”

Row | IC50 | Compound
1 | < 100 nM and 100 to 1000 nM | C=CC(=O)Nc1ccc(S(=O)(=O)N2CCN(c3ncccn3)CC2)cc1 [N-[4-(4-Pyrimidin-2-yl-piperazine-1-sulfonyl)-phenyl]-acrylamide]
2 | 100 to 1000 nM and < 100 nM | C=CC(=O)Nc1ccc(S(=O)(=O)N2CCN(c3nccs3)CC2)cc1 [N-[4-(4-Thiazol-2-yl-piperazine-1-sulfonyl)-phenyl]-acrylamide]
3 | < 100 nM and 100 to 1000 nM | C=CC(=O)Nc1ccc(S(=O)(=O)N2CCN(c3ncnc4ccsc34)CC2)cc1 [N-[4-(4-Thieno[3,2-d]pyrimidin-4-yl-piperazine-1-sulfonyl)-phenyl]-acrylamide]
4 | 100 to 1000 nM and < 100 nM | C=CC(=O)Nc1ccc(S(=O)(=O)N2CCc3cc(S(=O)(=O)N(C)C)ccc32)cc1 [N-[4-(5-Dimethylsulfamoyl-2,3-dihydro-indole-1-sulfonyl)-phenyl]-acrylamide]
5 | 1000 to 25000 nM | C=CC(=O)Nc1ccc(S(=O)(=O)N2CCNCC2)cc1 [N-[4-(piperazine-1-sulfonyl)-phenyl]acrylamide]
6 | 1000 to 25000 nM | C=CC(=O)Nc1cccc(S(=O)(=O)N2CCN(CCCc3ccccc3)CC2)c1 [N-{3-[4-(3-Phenyl-propyl)-piperazine-1-sulfonyl]-phenyl}-acrylamide]
7 | 1000 to 25000 nM | C=CC(=O)Nc1cccc(S(=O)(=O)N2CCN(CCCCc3ccccc3)CC2)c1 [N-{3-[4-(4-Phenyl-butyl)-piperazine-1-sulfonyl]-phenyl}-acrylamide]
8 | 1000 to 25000 nM | C=CC(=O)Nc1ccc(S(=O)(=O)N2CCCC2c2ccc(C(F)(F)F)cc2)cc1 (stereo not shown) [N-{4-[2-(4-Trifluoromethyl-phenyl)-pyrrolidine-1-sulfonyl]-phenyl}-acrylamide]
9 | 1000 to 25000 nM | C=CC(=O)Nc1ccc(S(=O)(=O)N2CCNC(c3ccc(C)o3)C2)cc1 (stereo not shown) [N-{4-[3-(5-Methyl-furan-2-yl)-piperazine-1-sulfonyl]-phenyl}-acrylamide]
10 | 100 to 1000 nM and < 100 nM | C=CC(=O)Nc1ccc(S(=O)(=O)N2CCN(C(=O)N3C[C@@H](C)O[C@@H](C)C3)CC2)cc1 [N-{4-[4-(2,6-Dimethyl-morpholine-4-carbonyl)-piperazine-1-sulfonyl]-phenyl}-acrylamide]
11 | < 100 nM and 100 to 1000 nM | C=CC(=O)Nc1ccc(S(=O)(=O)N2CCN(c3ccnc(Cl)n3)CC2)cc1 [N-{4-[4-(2-Chloro-pyrimidin-4-yl)-piperazine-1-sulfonyl]-phenyl}-acrylamide]
12 | < 100 nM and 100 to 1000 nM | C=CC(=O)Nc1ccc(S(=O)(=O)N2CCN(c3cccc4nc(C)ccc34)CC2)cc1 [N-{4-[4-(2-Methyl-quinolin-5-yl)-piperazine-1-sulfonyl]-phenyl}-acrylamide]
13 | 100 to 1000 nM and < 100 nM | C=CC(=O)Nc1ccc(S(=O)(=O)N2CCN(C(=O)Cc3ccc4ccccc4c3)CC2)cc1 [N-{4-[4-(2-Naphthalen-2-yl-acetyl)-piperazine-1-sulfonyl]-phenyl}-acrylamide]
14 | 100 to 1000 nM and < 100 nM | C=CC(=O)Nc1ccc(S(=O)(=O)N2CCN(C(=O)C3CC3c3ccccc3)CC2)cc1 (stereo not shown) [N-{4-[4-(2-Phenyl-cyclopropanecarbonyl)-piperazine-1-sulfonyl]-phenyl}-acrylamide]
15 | 100 to 1000 nM and < 100 nM | C=CC(=O)Nc1ccc(S(=O)(=O)N2CCN(c3ncccc3C)CC2)cc1 [N-{4-[4-(3-Methyl-pyridin-2-yl)-piperazine-1-sulfonyl]-phenyl}-acrylamide]
16 | 100 to 1000 nM and < 100 nM | C=CC(=O)Nc1ccc(S(=O)(=O)N2CCN(C(=O)CCc3ccccn3)CC2)cc1 [N-{4-[4-(3-Pyridin-2-yl-propionyl)-piperazine-1-sulfonyl]-phenyl}-acrylamide]
17 | 100 to 1000 nM and < 100 nM | C=CC(=O)Nc1ccc(S(=O)(=O)N2CCN(c3ncccc3C(F)(F)F)CC2)cc1 [N-{4-[4-(3-Trifluoromethyl-pyridin-2-yl)-piperazine-1-sulfonyl]-phenyl}-acrylamide]
18 | 100 to 1000 nM and < 100 nM | C=CC(=O)Nc1ccc(S(=O)(=O)N2CCN(C(=O)N3CCC(F)(F)CC3)CC2)cc1 [N-{4-[4-(4,4-Difluoro-piperidine-1-carbonyl)-piperazine-1-sulfonyl]-phenyl}-acrylamide]
19 | < 100 nM and 100 to 1000 nM | C=CC(=O)Nc1ccc(S(=O)(=O)N2CCN(c3nc(C)cc(C)n3)CC2)cc1 [N-{4-[4-(4,6-Dimethyl-pyrimidin-2-yl)-piperazine-1-sulfonyl]-phenyl}-acrylamide]
